Experimental data: ChEMBL document CHEMBL1201862, “PubChem BioAssay data set” (2004)
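Method: 48-hour compound exposure of cells in 96-well plates, five concentrations, linear interpolation of endpoints. At the GI50, growth is halved.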 Active and inactive are the calls of the source. No stated cut-off is given here; in the data, active = GI50 up to about 1.1 µM and inactive = higher.

Key:
Experiment in all cases: NCI-60 cell line screen, 48 h
DMS-114 = system: DMS-114
XF498 = system: XF498
DLD-1 = system: DLD-1
KM-20L2 = system: KM-20L2
HOP-18 = system: HOP-18
DMS-273 = system: DMS-273
RXF 631 = system: RXF 631
M19-MEL = system: M19-MEL
LXFL 529 = system: LXFL 529

SMILES | GI50 (DMS-114) | GI50 (XF498) | GI50 (DLD-1) | GI50 (KM-20L2) | GI50 (HOP-18) | GI50 (DMS-273) | GI50 (RXF 631) | GI50 (M19-MEL) | GI50 (LXFL 529)
CCOC(=O)CCC1(C(=O)OCC)CCCC1=O (configuration not stated) | > 100 µM (inactive) | > 100 µM (inactive) | > 100 µM (inactive) | > 100 µM (inactive) | > 100 µM (inactive) | 43.2 µM (inactive) | > 100 µM (inactive) | > 100 µM (inactive) | > 100 µM (inactive)
CS(=O)(=O)N(CCC#N)c1ccc(C=O)cc1 | > 100 µM (inactive) | > 100 µM (inactive) | – | > 100 µM (inactive) | – | > 100 µM (inactive) | – | > 100 µM (inactive) | > 100 µM (inactive)
O=C(O)Cc1cc(=O)oc2cc(O)c(Cl)cc12 | > 100 µM (inactive) | > 100 µM (inactive) | > 100 µM (inactive) | > 100 µM (inactive) | > 100 µM (inactive) | > 100 µM (inactive) | – | > 100 µM (inactive) | > 100 µM (inactive)
O=C(/C=C/c1c(O)ccc2ccccc12)c1ccc2ccccc2c1 | > 100 µM (inactive) | – | > 100 µM (inactive) | > 100 µM (inactive) | – | > 100 µM (inactive) | – | 18.2 µM (inactive) | –
CC1(O)CCn2c(=O)c3cc4ccccc4cc3c(=O)n2C1O (configuration not stated) | > 100 µM (inactive) | – | > 100 µM (inactive) | > 100 µM (inactive) | 26.8 µM (inactive) | > 100 µM (inactive) | > 100 µM (inactive) | > 100 µM (inactive) | > 100 µM (inactive)
NN=C1/C(=C\c2ccccc2)CCC/C1=C/c1ccccc1 | 26.1 µM (inactive) | – | 31.8 µM (inactive) | 39.6 µM (inactive) | 63.4 µM (inactive) | 39.9 µM (inactive) | – | 31.6 µM (inactive) | 31.4 µM (inactive)
O=NN(CCCl)C(=O)NC1CCC(=O)NC1=O (configuration not stated) | 214 µM (inactive) | 69 µM (inactive) | 358 µM (inactive) | 800 µM (inactive) | 432 µM (inactive) | 160 µM (inactive) | – | 250 µM (inactive) | –
Cc1nc(C(N)=O)c(N)n1CCN1CCN(C(=O)CCCCCCCCCCNC2NC=Nc3[nH]cnc32)CC1 (configuration not stated) | 6.04 µM (inactive) | – | – | > 100 µM (inactive) | > 100 µM (inactive) | – | > 100 µM (inactive) | 34.4 µM (inactive) | 11.2 µM (inactive)
COC1C(C)OC(OC2CC(C)(O)Cc3cc4c(c(O)c32)C(=O)c2c(O)cc3c(c2C4=O)OC2OC3(C)C(O)C(N(C)C)C2O)C(OC)C1(C)OC (configuration not stated) | – | 0.0165 µM (active) | 0.119 µM (active) | 0.0299 µM (active) | 0.11 µM (active) | 0.015 µM (active) | 0.155 µM (active) | – | 0.0318 µM (active)
COc1ccc(/C=C2\CCCC(C(NO)c3ccc(OC)cc3)C2=NO)cc1 (configuration not stated) | 28.4 µM (inactive) | – | 46.7 µM (inactive) | 61.9 µM (inactive) | 32.4 µM (inactive) | 45.9 µM (inactive) | 40.5 µM (inactive) | 46.3 µM (inactive) | 28.1 µM (inactive)
COP(=O)(OC)/C(=N\Nc1ccc([N+](=O)[O-])cc1)NCc1ccccc1 | 21.4 µM (inactive) | – | 33.3 µM (inactive) | 30.1 µM (inactive) | – | 36.3 µM (inactive) | – | 37.3 µM (inactive) | 31.8 µM (inactive)
Cc1ccc(NC(=O)CC(=O)n2nc(-c3ccccc3)c(/N=N\c3ccccc3[N+](=O)[O-])c2-c2ccccc2)cc1 | 84.5 µM (inactive) | 37.5 µM (inactive) | 77.8 µM (inactive) | > 100 µM (inactive) | > 100 µM (inactive) | 44 µM (inactive) | 27.6 µM (inactive) | > 100 µM (inactive) | 38.6 µM (inactive)
O=c1[nH]c(C2CCCCC2)nc2cc(Cl)ccc12 | > 100 µM (inactive) | – | – | > 100 µM (inactive) | – | > 100 µM (inactive) | – | > 100 µM (inactive) | > 100 µM (inactive)
O=C1NC2C(=O)N(Cc3ccccc3)C(=O)C2N1 (configuration not stated) | > 100 µM (inactive) | > 100 µM (inactive) | > 100 µM (inactive) | > 100 µM (inactive) | – | – | – | > 100 µM (inactive) | > 100 µM (inactive)
O=S(=O)(NCn1ccc2ccccc21)c1ccccc1 | – | > 100 µM (inactive) | 40.9 µM (inactive) | > 100 µM (inactive) | > 100 µM (inactive) | > 64.3 µM (inactive) | > 100 µM (inactive) | > 100 µM (inactive) | > 100 µM (inactive)
CC/C(CC(=O)CCC(=O)Nc1ccc(C)c(C)c1)=N\NC(=O)C(N)=O | > 100 µM (inactive) | > 100 µM (inactive) | > 100 µM (inactive) | > 100 µM (inactive) | > 100 µM (inactive) | > 100 µM (inactive) | – | > 100 µM (inactive) | > 100 µM (inactive)
COC(=O)CCC(=O)CC1CC(=O)C2CCCN12 (configuration not stated) | > 100 µM (inactive) | > 100 µM (inactive) | > 100 µM (inactive) | > 100 µM (inactive) | > 100 µM (inactive) | > 100 µM (inactive) | – | > 100 µM (inactive) | > 100 µM (inactive)
COc1c(NC(C)=O)cc(C)cc1NC(C)=O | > 100 µM (inactive) | > 100 µM (inactive) | > 100 µM (inactive) | – | – | > 100 µM (inactive) | – | > 100 µM (inactive) | –
Cc1ccc2nc3cc(C)c(=O)cc-3sc2c1 | 40.7 µM (inactive) | – | > 100 µM (inactive) | > 100 µM (inactive) | > 100 µM (inactive) | > 100 µM (inactive) | – | 16.1 µM (inactive) | 78.5 µM (inactive)
CCC[S+]([O-])c1nc(COC(=O)NC)c(COC(=O)NC)n1C (configuration not stated) | > 100 µM (inactive) | > 100 µM (inactive) | > 100 µM (inactive) | > 100 µM (inactive) | > 100 µM (inactive) | > 100 µM (inactive) | > 100 µM (inactive) | > 100 µM (inactive) | > 100 µM (inactive)
